# Measured values from patent US11365185B2, “Lysophosphatidic acid receptor 1 (LPAR1) inhibitor compounds” (Eli Lilly and Company, priority 2017, dated 2022).
# Where a name gives a salt, the structure may show the parent alone.
# Experiments:
# [1] = test system: Human hepatic stellate cell line LX-2; assay: Calcium Influx of Human Hepatic Stellate Cells (LX-2); type: cell-based; settings: LX-2 cells, LPA-stimulated calcium influx
# Procedure: Calcium Influx of Human Hepatic Stellate Cells (LX-2)
# Human hepatic stellate cell line LX-2 is purchased from EMD Millpore. LX-2 cells are seeded at 20,000-40,000 cells per well in a 96-well poly-D-lysine coated plate one day before the assay. Prior to the assay, the cells are washed once with assay buffer (HBSS containing 20 mM HEPES and 0.2% BSA) and then incubated in 50 μl of assay buffer for 60 minutes. Then 50 μl of a calcium indicator dye (Fluo-4 NW, Molecular Probes) are added to each well and incubation is continued for 30 minutes at 37° C. and then 30 minutes at room temperature. 50 μl of test compounds in 4% DMSO are added to the cells and incubation is continued at room temperature for 40 minutes. Cells are stimulated by the addition of 50 μl of 128 nM LPA and intracellular calcium is measured using the FLIPR TETRA (Molecular Devices). IC50 values are determined using “Genedata Screener” analysis tool.
# LPAR1 [2] = target: T1, LPAR1 (Homo sapiens (Human), UniProt Q92633); assay: LPAR1 Calcium Flux Assay; type: cell-based; settings: U937 cells overexpressing human LPAR1, LPA-stimulated calcium, FLIPR
# Procedure: LPAR1 Calcium Flux Assays
# (§1) A cDNA encoding the human LPAR1 receptor is synthesized and cloned into pDNA3 expression plasmid. The plasmid is transfected in U937 cells using Lipofectamine 2000 (Invitrogen Corp., USA). Clones stably expressing human LPAR1 are selected using puromycin and identified as cells that show Ca-influx in response to LPA.
# U937 cells overexpressing human LPAR1 are seeded at 100,000 cells per well in a 96-well fibronectin (10 ug/ml) coated plate in 60 μl of assay buffer (HBSS containing 20 mM HEPES and 0.2% BSA) and then incubated for 60 minutes. Then 50 μl of a calcium indicator dye (Fluo-4 NW, Molecular Probes) are added to each well and incubation continued for 30 minutes at 37° C. and then 30 minutes at room temperature. 50 μl of test compounds in 4% DMSO are added to the cells and incubation continued at room temperature for 40 minutes. Cells are the stimulated by the addition of 50 μl of 128 nM LPA and intracellular calcium is measured using the FLIPR TETRA (Molecular Devices). IC50 values are determined using “Genedata Screener” analysis tool.
# Target sequence in this assay (Q92633 whole entry): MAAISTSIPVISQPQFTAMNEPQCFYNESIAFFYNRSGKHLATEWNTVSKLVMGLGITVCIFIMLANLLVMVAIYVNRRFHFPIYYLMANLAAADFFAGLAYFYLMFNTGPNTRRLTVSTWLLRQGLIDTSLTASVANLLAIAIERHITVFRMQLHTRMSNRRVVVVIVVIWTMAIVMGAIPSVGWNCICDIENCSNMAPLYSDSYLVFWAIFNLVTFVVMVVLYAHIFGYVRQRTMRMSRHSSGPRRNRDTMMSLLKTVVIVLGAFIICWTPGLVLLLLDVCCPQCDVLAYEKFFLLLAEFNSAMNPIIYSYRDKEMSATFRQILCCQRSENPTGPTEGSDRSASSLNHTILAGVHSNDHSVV
# human LPAR3 = human LPAR3 (Homo sapiens (Human), UniProt Q9UBY5); assay: LPAR3 Calcium Flux Assay; type: cell-based; settings: U2OS cells overexpressing human LPAR3, LPA-stimulated calcium, FLIPR
# Sequence of human LPAR3 (Q9UBY5 whole entry): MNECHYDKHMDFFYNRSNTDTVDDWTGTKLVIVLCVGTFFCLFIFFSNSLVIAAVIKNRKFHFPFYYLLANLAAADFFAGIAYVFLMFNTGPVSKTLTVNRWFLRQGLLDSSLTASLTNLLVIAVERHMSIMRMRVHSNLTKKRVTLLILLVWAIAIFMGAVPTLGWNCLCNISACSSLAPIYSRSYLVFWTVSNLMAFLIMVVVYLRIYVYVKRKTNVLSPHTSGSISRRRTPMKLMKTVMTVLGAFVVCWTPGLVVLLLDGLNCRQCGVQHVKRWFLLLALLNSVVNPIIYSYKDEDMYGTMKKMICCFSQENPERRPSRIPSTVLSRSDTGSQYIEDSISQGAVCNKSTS
# Procedure: LPAR3 Calcium Flux Assays
# as §1, with “LPAR3” for “LPAR1”, “U2OS” for “U937”, “neomycin” for “puromycin”
# U2OS cells overexpressing human LPAR3 are seeded at 20,000-40,000 cells per well in a 96-well poly-D-lysine coated plate one day before the assay. Prior to the assay, the cells are washed once with assay buffer (HBSS containing 20 mM HEPES and 0.2% BSA) and then incubated in 50 μl of assay buffer for 60 minutes. Then 50 μl of a calcium indicator dye (Fluo-4 NW, Molecular Probes) are added to each well and incubation is continued for 30 minutes at 37° C. and then 30 minutes at room temperature. 50 μl of test compounds in 4% DMSO are added to the cells and incubation continued at room temperature for 40 minutes. Cells are stimulated by the addition of 50 μl of 128 nM LPA and intracellular calcium is measured using the FLIPR TETRA (Molecular Devices). IC50 values are determined using “Genedata Screener” analysis tool.
# LPAR1 [3] = target: T1, LPAR1; assay: LPAR1 Membrane Binding Assay; settings: membrane containing LPAR1, radio labeled ligand, SPA
# Procedure: LPAR1 Membrane Binding Assay
# The ability of a compound to inhibit binding of a ligand (1-(4′-(4-(((benzyloxy)carbonyl)amino)-3-methylisoxazol-5-yl)-[1,1′-biphenyl]-4-yl)cyclopropane-1-carboxylic acid) to LPAR1 is assessed via a membrane binding assay. Membrane containing LPAR1 was purchased from Cerep (Cat. No. 290312RB). Prior to the assay, membrane is thawed and homogenized for 15 seconds. 50 μl of test compounds and 50 μl of radio labeled ligand are added to the 96-well plates and then 50 of μl membrane (50-400 ug/ml) are added. Next, 50 μl of SPA PVT WGA beads are added (1-5 mg/ml) and the plates are sealed and incubated at room temperate for 5 minutes. Radio activity is measured by Beta Counter and IC50 values are determined using “Genedata Screener” analysis tool.
# Target sequence in this assay (Q92633 whole entry, species assumed): as the sequence (Q92633 whole entry) above
IC50 [1] [nM],IC50 (LPAR1 [2]) [nM],IC50 (human LPAR3) [nM],Ki (LPAR1 [3]) [nM],Structure (SMILES)
13.2,45.8,> 10000,–,"COCc1cc(C2(C(=O)O)CC2)ccc1-c1ccc(-c2cnn(C)c2Nc2cncc(C(C)C)n2)nc1 [Example 14, 1-[4-[6-[5-[(6-isopropylpyrazin-2-yl)amino]-1-methyl-pyrazol-4-yl]-3-pyridyl]-3-(methoxymethyl)phenyl]cyclopropanecarboxylic Acid; Hydrochloride]"
3.8,8.61,2480,44.2,"Cn1ncc(-c2ncc(-c3ccc(C4(C(=O)O)CC4)cc3)cc2F)c1Nc1cncc(OC2CC2)n1 [Example 3, 1-[4-[6-[5-[[6-(cyclopropoxy)pyrazin-2-yl]amino]-1-methyl-pyrazol-4-yl]-5-fluoro-3-pyridyl]phenyl]cyclopropanecarboxylic Acid; Hydrochloride]"
15.3,48,2760,46.2,"CC(C)c1cncc(Nc2c(-c3ccc(-c4ccc(C5(C(=O)O)CC5)cn4)cn3)cnn2C)n1 [Example 24, 1-[6-[6-[5-[(6-isopropylpyrazin-2-yl)amino]-1-methyl-pyrazol-4-yl]-3-pyridyl]-3-pyridyl]cyclopropanecarboxylic Acid; Dihydrochloride]"
10,11.1,495,34.6,"CC(C)Oc1cncc(Nc2c(-c3ncc(-c4ccc(C5(C(=O)O)CC5)cc4)cc3F)cnn2C)n1 [Example 11, 1-[4-[5-fluoro-6-[5-[(6-isopropoxypyrazin-2-yl)amino]-1-methyl-pyrazol-4-yl]-3-pyridyl]phenyl]cyclopropanecarboxylic Acid; Hydrochloride]"
14.4,24.4,4280,40.9,"Cn1ncc(-c2ccc(-c3ccc(C4(C(=O)O)CC4)cc3)cn2)c1Nc1cncc(C(C)(F)F)n1 [Example 12, 1-[4-[6-[5-[[6-(1,1-difluoroethyl)pyrazin-2-yl]amino]-1-methyl-pyrazol-4-yl]-3-pyridyl]phenyl]cyclopropanecarboxylic Acid; Hydrochloride]"
10.5,17.9,> 10000,–,"Cn1ncc(-c2ccc(-c3ccc(C4(C(=O)O)CC4)c(C#N)c3)cn2)c1Nc1cncc(OC2CC2)n1 [Example 9, 1-[2-cyano-4-[6-[5-[[6-(cyclopropoxy)pyrazin-2-yl]amino]-1-methyl-pyrazol-4-yl]-3-pyridyl]phenyl]cyclopropanecarboxylic Acid; Hydrochloride]"
60.5,122,5270,115,"COC(C)(C)c1cncc(Nc2c(-c3ccc(-c4ccc(C5(C(=O)O)CC5)cc4)cn3)cnn2C)n1 [Example 6, 1-[4-[6-[5-[[6-(1-methoxy-1-methyl-ethyl)pyrazin-2-yl]amino]-1-methyl-pyrazol-4-yl]-3-pyridyl]phenyl]cyclopropanecarboxylic Acid; Hydrochloride]"
8.67,16.7,1590,80.5,"Cn1ncc(-c2ncc(-c3ccc(C4(C(=O)O)CC4)cc3)cc2F)c1Nc1cncc(C(C)(C)F)n1 [Example 4, 1-[4-[5-fluoro-6-[5-[[6-(1-fluoro-1-methyl-ethyl)pyrazin-2-yl]amino]-1-methyl-pyrazol-4-yl]-3-pyridyl]phenyl]cyclopropanecarboxylic Acid Hydrochloride]"
19.4,42.9,> 10000,94.8,"CC(C)c1cncc(Nc2c(-c3ccc(-c4ccc(C5(C(=O)O)CC5)cc4CC#N)cn3)cnn2C)n1 [Example 15, 1-[3-(cyanomethyl)-4-[6-[5-[(6-isopropylpyrazin-2-yl)amino]-1-methyl-pyrazol-4-yl]-3-pyridyl]phenyl]cyclopropanecarboxylic Acid; Hydrochloride]"
16.3,88.1,2400,–,"CC(C)c1cncc(Nc2c(-c3cnc(-c4ccc(C5(C(=O)O)CC5)cc4)cn3)cnn2C)n1 [Example 19, 1-[4-[5-[5-[(6-isopropylpyrazin-2-yl)amino]-1-methyl-pyrazol-4-yl]pyrazin-2-yl]phenyl]cyclopropanecarboxylic Acid; Hydrochloride]"
5.41,9.86,4420,12.5,"Cn1ncc(-c2ccc(-c3ccc(C4(C(=O)O)CC4)cc3)cn2)c1Nc1cncc(OC2CC2)n1 [Example 10, 1-[4-[6-[5-[[6-(cyclopropoxy)pyrazin-2-yl]amino]-1-methyl-pyrazol-4-yl]-3-pyridyl]phenyl]cyclopropanecarboxylic Acid]"
16.3,27.1,1050,72.3,"Cc1cc(-c2ccc(-c3cnn(C)c3Nc3cncc(OC(C)C)n3)nc2)ccc1C1(C(=O)O)CC1 [Example 7, 1-[4-[6-[5-[(6-isopropoxypyrazin-2-yl)amino]-1-methyl-pyrazol-4-yl]-3-pyridyl]-2-methyl-phenyl]cyclopropanecarboxylic Acid; Hydrochloride]"
24.2,52.9,> 10000,30.8,"Cn1ncc(-c2ccc(-c3ccc(C4(C(=O)O)CC4)cc3)cc2)c1Nc1cncc(C2CC2)n1 [Example 25, Ammonium 1-[4-[4-[5-[(6-cyclopropylpyrazin-2-yl)amino]-1-methyl-pyrazol-4-yl]phenyl]phenyl]cyclopropanecarboxylate]"
7.13,–,–,–,"Cn1ncc(-c2ccc(-c3ccc(C4(C(=O)O)CC4)c(C(F)(F)F)c3)cn2)c1Nc1cncc(OC2CC2)n1 [Example 8, 1-[4-[6-[5-[[6-(cyclopropoxy)pyrazin-2-yl]amino]-1-methyl-pyrazol-4-yl]-3-pyridyl]-2-(trifluoromethyl)phenyl]cyclopropanecarboxylic Acid; Hydrochloride]"

Structure (SMILES),IC50 [1] [nM],IC50 (LPAR1 [2]) [nM],IC50 (human LPAR3) [nM],Ki (LPAR1 [3]) [nM]
"Cn1ncc(-c2ccc(-c3ccc(C4(C(=O)O)CC4)cc3)cn2)c1Nc1cncc(OC(C)(C)C)n1 [Example 1, 1-[4-[6-[5-[(6-tert-butoxypyrazin-2-yl)amino]-1-methyl-pyrazol-4-yl]-3-pyridyl]phenyl]cyclopropanecarboxylic Acid]",37.2,74.4,1330,–
"Cn1ncc(-c2ccc(-c3ccc(C4(C(=O)O)CC4)cc3)cn2)c1Nc1cncc(OC2CC(F)(F)C2)n1 [Example 5, 1-[4-[6-[5-[[6-(3,3-difluorocyclobutoxy)pyrazin-2-yl]amino]-1-methyl-pyrazol-4-yl]-3-pyridyl]phenyl]cyclopropanecarboxylic Acid]",17.1,26.9,49.6,51.4
"Cn1ncc(-c2ccc(-c3ccc(C4(C(=O)O)CC4)cc3)cn2)c1Nc1cncc(OC2CCC2)n1 [Example 2, 1-[4-[6-[5-[[6-(cyclobutoxy)pyrazin-2-yl]amino]-1-methyl-pyrazol-4-yl]-3-pyridyl]phenyl]cyclopropanecarboxylic Acid]",9.22,17.2,327,–
